Assay results: article PMC3432134, “Effect of Ambient Temperature on the Thermoregulatory and Locomotor Stimulant Effects of 4-Methylmethcathinone in Wistar and Sprague-Dawley Rats” (PLoS ONE, 2012)
Several values for one entry are separate records, joined by “and”; a condition that tells them apart may be missing. Identical values can stand only once.

Tests used:
[1] = tested on: Wistar and Sprague-Dawley rats; experiment: Body temperature by implanted radiotelemetry after s.c. drug challenge
[2] = tested on: Wistar and Sprague-Dawley rats; experiment: Locomotor activity (activity counts) by implanted radiotelemetry after s.c. drug challenge
[3] = Pharmacokinetic study, plasma levels by LC/MS/MS after s.c. dosing; format: in vivo, rat; conditions: for AUC(0-inf) / Tmax / Cmax: rat, plasma, sc, 5.6 mg/kg s.c.
Description: Surgical placement of jugular vein catheters was conducted at the vendor prior to delivery at the laboratory. Blood samples were collected via the jugular catheters at timepoints 5, 15, 30, 60, 120 min and 3, 6 and 24 hrs after dosing. Plasma was stored at −80°C until analysis for drug concentrations via LC/MS/MS. Sample analysis was by LC/MS/MS with data analysis via the non compartmental analysis model of PK Solutions (Summit Research Services; Montrose, CO). The summary data for the Sprague-Dawley group have been previously described.

[4] = tested on: extra-cellular dopamine in the nucleus accumbens shell; experiment: In vivo microdialysis, nucleus accumbens shell, dopamine; set-up: species or system rat; conditions: 5 male Wistar rats, 10 mg/kg s.c.
Description: (§1) For microdialysis studies, drug naïve rats were implanted with a microdialysis guide cannula and probe using previously published procedures. A guide cannula (SciPro, Sanborn, NY) was implanted aimed at the NAc shell (AP = +1.6 mm, bregma; ML = ±2.0 mm, bregma; DV = –5.0 mm, dura), and rats were allowed one week for recovery. On the evening prior to the experiment, a 2 mm microdialysis probe was inserted into the guide cannula and perfused overnight with artificial CSF (0.1 µl/min) composed of the following (in mM): 149 NaCl, 2.8 KCl, 1.2 CaCl2, 1.2 MgCl2, 0.25 ascorbic acid, 5.4 D-glucose. The following morning, the perfusion rate was raised to 0.6 µl/min and samples were collected in 15 min fractions following 1 hr of equilibration.

[5] = tested on: extra-cellular serotonin in the nucleus accumbens shell; experiment: In vivo microdialysis, nucleus accumbens shell, serotonin; set-up: species or system rat; conditions: 5 male Wistar rats, 10 mg/kg s.c.
Description: as §1

[6] = tested on: 5-HT2 receptor subtypes versus D2 receptors; set-up: method as in PMID 21824752; conditions: in vitro; greater affinity for 5-HT2; cited from earlier work
extracellular dopamine = tested on: extracellular dopamine; set-up: method as in PMID 21615721, PMID 22169943; conditions: cited from earlier work
Sprague-Dawley rats = tested on: Sprague-Dawley rats; set-up: method as in PMID 21810934; conditions: four sequential doses of 1.0 or 3.0 mg/kg s.c. two hours apart, and i.v. self-administration (mean 1.77–6.78 mg/kg), ambient ≥27°C; cited from earlier work
experienced-user sample = conditions: one experienced-user sample; cited from earlier work
[7] = Sprague-Dawley rats, 23°C ambient, first hour after 3.2 mg/kg 4-MMC and 5.6 mg/kg METH, vs pretreatment and vehicle
[8] = Wistar rats, 23°C ambient, first hour after 3.2 mg/kg 4-MMC or 5.6 mg/kg METH, second hour after 10.0 mg/kg 4-MMC, third hour after 5.6 mg/kg METH
[9] = both strains, 23°C ambient, first hour after 10.0 mg/kg 4-MMC or 1.0 mg/kg METH s.c., greater in Sprague-Dawley
[10] = Wistar Han, male Wistar rats (N = 3)
[11] = male Sprague Dawley rats (N = 3), summary data previously described [32]
[12] = subcutaneous dosing, rats (strain not given)
[13] = Wistar and Sprague-Dawley rats, s.c.

## CN[C@@H](C)Cc1ccccc1 [METH, d-methamphetamine]
[1]; Sprague-Dawley rats, 23°C ambient, first hour after 1.0 mg/kg and first two hours after 5.6 mg/kg s.c., vs baseline and vehicle
  body temperature (hourly average): significantly increased
[2]; [7]
  locomotor activity (hourly summed counts): reliably higher
[2]; [8]
  locomotor activity (hourly summed counts): higher than the vehicle condition
[2]; [9]
  locomotor activity (hourly summed counts): increased over pretreatment levels and vehicle
[2]; both strains, 23°C ambient, second hour after 5.6 mg/kg s.c.
  locomotor activity (hourly summed counts): suppressed

## CNC(C)C(=O)c1ccc(C)cc1 (stereo not drawn) [4-MMC, 4-methylmethcathinone]
[3]; [10]
  AUC(0-inf): 870 ng·h/mL
  Tmax: 15 min
  Cmax: 868 ng/mL and 4.9 µM
[3]; [11]
  AUC(0-inf): 1170 ng·h/mL
  Tmax: 15 min
  Cmax: 1210 ng/mL and 6.81 µM
[3]; [12]
  elimination from plasma: mostly eliminated within two hours
  time at which maximum plasma levels were observed: ≤ 15 min
[4]
  relative increase of extra-cellular DA over baseline: ~9 fold
[4]; Dunnett post-hoc
  duration of significant increase of DA over the pre-treatment average: 2 h
[5]
  relative increase of extra-cellular 5-HT over baseline: ~22 fold
[5]; Dunnett post-hoc
  duration of significant increase of 5-HT over the pre-treatment average: 1.5 h
[6]
  affinity for 5-HT2 receptor subtypes relative to D2 receptors: 15 fold
Extracellular dopamine
  increase of extracellular dopamine, less than METH: about 6 fold
Sprague-Dawley rats
  rectal temperature: elevates
experienced-user sample
  users reporting cold extremities: About 15%
  users reporting excessive perspiration: 67%
[1]; Sprague-Dawley rats, 23°C ambient, only following 3.2 mg/kg (2, 3 hrs) and 5.6 mg/kg (3 hrs)
  body temperature (hourly average): lower than both the pretreatment baseline and the comparable timepoint after vehicle injection
[1]; Sprague-Dawley rats, 23°C ambient, second hour after 10.0 mg/kg
  body temperature (hourly average): increased relative to vehicle
[1]; Sprague-Dawley rats, 27°C ambient, first hour after administration
  body temperature (hourly average): unchanged
[1]; Sprague-Dawley rats, 27°C ambient, third hour after 1.0 mg/kg, vs baseline and vehicle
  body temperature (hourly average): reliable decrease
[1]; Wistar rats, 10 mg/kg s.c., 23°C ambient, (±SEM)
  mean temperature nadir: 36.74 (±0.187) °C
[1]; Wistar rats, 10 mg/kg s.c., 27°C ambient, (±SEM)
  mean temperature nadir: 37.35 (±0.115) °C
[1]; Wistar rats, 23°C ambient, first hour after 3.2, 5.6 and 10 mg/kg s.c., vs baseline, saline and Sprague-Dawley
  body temperature (hourly average): significantly lowered
[1]; Wistar rats, 27°C ambient, first hour after 5.6 or 10.0 mg/kg s.c., vs baseline, saline and Sprague-Dawley
  body temperature (hourly average): decreased
[1]; s.c. dosing, rats, applies to temperature and activity
  duration of temperature and activity effects: about 90 minutes
[2]; [7]
  locomotor activity (hourly summed counts): reliably higher
[2]; Sprague-Dawley rats, 27°C ambient, first hour after 5.6 or 10.0 mg/kg, vs pre-injection, vehicle and Wistar
  locomotor activity (hourly summed counts): higher
[2]; [13]
  efficacy in stimulating locomotion relative to d-methamphetamine (METH): equally efficacious
  potency in stimulating locomotion relative to METH: about tenfold less potent
[2]; [8]
  locomotor activity (hourly summed counts): higher than the vehicle condition
[2]; Wistar rats, 27°C ambient, after 3.2, 5.6 and 10.0 mg/kg, vs hour before injection and vehicle
  locomotor activity (hourly summed counts): higher
[2]; [9]
  locomotor activity (hourly summed counts): increased over pretreatment levels and vehicle
[2]; each strain, 23°C ambient, first hour after 5.6 or 10.0 mg/kg s.c., vs pre-injection hour and saline
  locomotor activity (hourly summed counts): significantly elevated
[2]; each strain, 23°C ambient, second hour after 10.0 mg/kg, vs vehicle, effect greater in Sprague-Dawley
  locomotor activity (hourly summed counts): significant increase

## CCCN(CCC)C1CCc2cccc(O)c2C1 (stereo not drawn) [8-OH-DPAT]
[1]; Sprague-Dawley rats, 0.3 mg/kg s.c., 23°C ambient
  mean temperature nadir: 35.62 (±0.177) °C
[1]; Sprague-Dawley rats, 0.05, 0.1, 0.3 mg/kg, first hour (second hour also for 0.3 mg/kg), vs vehicle and baseline
  body temperature (hourly average): lowered body temperature
[1]; Wistar rats, 0.3 mg/kg s.c., 23°C ambient
  mean temperature nadir: 35.18 (±0.178) °C
[1]; Wistar rats, two hours after dosing with all three doses (0.05, 0.1, 0.3 mg/kg), vs vehicle and baseline
  body temperature (hourly average): hypothermia
[1]; each strain of rats, 23°C ambient, s.c.
  body temperature: significantly reduced
